PubChem BioAssay (NCI)
Values joined by “and” are separate entries in the source; they are usually repeats but may differ in a detail not shown here. Identical values can stand only once.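 Five compound concentrations were applied to cells in 96-well plates for 48 hours; endpoints were derived by simple linear interpolation of the resulting dose-response curve. Here, GI50 denotes the concentration required for 50% inhibition of growth. TGI denotes the concentration required for complete inhibition of growth.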

What was measured:
Test in all cases: inhibition of tumour cell growth, NCI panel, 48 h
BT-549 breast = tested on: BT-549 breast
CAKI-1 renal = tested on: CAKI-1 renal
EKVX NSCLC = tested on: EKVX NSCLC
KM12 colon = tested on: KM12 colon
NCI-H522 lung = tested on: NCI-H522 lung
RXF 393 renal = tested on: RXF 393 renal
SF-539 CNS = tested on: SF-539 CNS
SK-OV-3 ovarian = tested on: SK-OV-3 ovarian
SNB-75 CNS = tested on: SNB-75 CNS
SW-620 colon = tested on: SW-620 colon

SMILES | GI50 (BT-549 breast) | TGI (BT-549 breast) | GI50 (CAKI-1 renal) | TGI (CAKI-1 renal) | GI50 (EKVX NSCLC) | TGI (EKVX NSCLC) | GI50 (KM12 colon) | TGI (KM12 colon) | GI50 (NCI-H522 lung) | TGI (NCI-H522 lung) | GI50 (RXF 393 renal) | TGI (RXF 393 renal) | GI50 (SF-539 CNS) | TGI (SF-539 CNS) | GI50 (SK-OV-3 ovarian) | TGI (SK-OV-3 ovarian) | GI50 (SNB-75 CNS) | TGI (SNB-75 CNS) | GI50 (SW-620 colon) | TGI (SW-620 colon)
COC(=O)COc1ccc(/C=C2\N=C(c3ccccc3)N(c3cc(C(F)(F)F)ccc3Cl)C2=O)cc1 | 28.1 µM | 94.2 µM | > 100 µM | > 100 µM | > 100 µM | > 100 µM | 42.3 µM | > 100 µM | 24.1 µM | 68.8 µM | > 100 µM | > 100 µM | 36 µM | > 100 µM | > 100 µM | > 100 µM | 76.6 µM | > 100 µM | 62.1 µM | > 100 µM
CC1(C)NCCC[C@]2(C)[C@H]3C=CC4=C5C[C@](C)(CO)CC[C@]5(C)CC[C@@]4(C)[C@]3(C)CC[C@@H]12 | 3.46 µM | 12.7 µM | 3.7 µM | 13.8 µM | 2.77 µM | 8.27 µM | 6.09 µM | 20.3 µM | 2.38 µM | 7.31 µM | 1.84 µM | 4.15 µM | 2.69 µM | 9.26 µM | 14.5 µM | 28.6 µM | 3.43 µM | 14.8 µM | 5.76 µM | 18.8 µM
CC1(C)OC[C@@H]([C@@]2(CO[Si](C)(C)C(C)(C)C)CC=CC(=O)O2)O1 | 24.1 µM | 47.8 µM | 12.2 µM | 57.7 µM | 26.9 µM | 63.3 µM | 31.1 µM | > 100 µM | 30.2 µM | 86.2 µM | 23.6 µM | 56.3 µM | 20.6 µM | 42.4 µM | 30.4 µM | 88.5 µM | – | – | 28.3 µM | 69.8 µM
O=[N+]([O-])c1ccc(-c2nc(N(CCO)CCO)c3ccccc3n2)o1 | 0.174 µM | 0.758 µM | 0.282 µM | 3.33 µM | 0.464 µM | 4.31 µM | 0.216 µM | 0.862 µM | 0.0713 µM | 0.217 µM | 0.159 µM | 0.34 µM | 0.272 µM | 1.24 µM | 0.156 µM | 0.401 µM | 0.16 µM | 0.588 µM | 0.265 µM | 2.55 µM
O=C(/C=C/C=C/c1ccccc1)CCc1ccccc1 | – | > 100 µM | – | > 100 µM | – | > 100 µM | – | > 100 µM | – | > 100 µM | – | > 100 µM | – | > 100 µM | – | > 100 µM | – | > 100 µM | – | > 100 µM
CCCCCNC(=O)[C@@H]1CCCN2C(=O)CC[C@H](NC(=O)[C@H](Cc3ccc(OP(=O)(O)O)cc3)NC(C)=O)C(=O)N12 | > 25 µM | > 25 µM | > 25 µM | > 25 µM | – | – | > 25 µM | > 25 µM | > 25 µM | > 25 µM | > 25 µM | > 25 µM | > 25 µM | > 25 µM | > 25 µM | > 25 µM | > 25 µM | > 25 µM | > 25 µM | > 25 µM
O=C1/C(=C/c2ccc(O)c([N+](=O)[O-])c2)CCC/C1=C\c1ccc(O)c([N+](=O)[O-])c1 | 2.83 µM | 36.6 µM and 9.46 µM | – | 20.4 µM | 15 µM | 50 µM and 28.8 µM | 1.97 µM | 18.4 µM and 9.42 µM | 1.49 µM | 22.6 µM and 3.08 µM | 1.53 µM | 19.6 µM and 5.91 µM | – | 50 µM | 22.2 µM | 50 µM and > 100 µM | – | 6.65 µM | 30.1 µM | 50 µM and 99.2 µM
CC([C@H]1CCC2C3CCC4C[C@@H](NC=O)CC[C@]4(C)C3CC[C@@]21C)N(C)C (stereo not given in full) | 6.95 µM | 25.1 µM | 4.26 µM | 11.9 µM | 2.64 µM | 19.1 µM | 3.14 µM | 12.6 µM | 4.53 µM | 17.6 µM | 1.77 µM | 4.15 µM | 1.37 µM | 2.79 µM | 3.96 µM | 13.5 µM | 4.68 µM | 18.2 µM | 1.85 µM | 3.95 µM
c1ccc(C(=NNc2nc3ccccc3o2)c2ccccn2)nc1 | 0.153 µM | – | 0.0497 µM | 7.87 µM and 1.34 µM | 0.0387 µM | – | 0.0681 µM | 17.8 µM and 15 µM | 0.0339 µM | – | – | 5.96 µM and 3.95 µM | 0.112 µM | – | 0.0518 µM | – | 0.397 µM | 24.1 µM | 0.0524 µM | 39.8 µM and 19.1 µM
Nc1ccc(C(=O)c2ccc(N)c(Br)c2)cc1Br | 1.84 µM | 18.8 µM | 0.299 µM | 14.7 µM | 0.536 µM | > 100 µM | 0.409 µM | 12.8 µM | 0.256 µM | 0.623 µM | 0.279 µM | 0.882 µM | 0.296 µM | 3.16 µM | 0.425 µM | 32.6 µM | 0.291 µM | 13.4 µM | 0.379 µM | > 100 µM
OCC(O)C(O)C(O)C1SC(c2ccccc2)=NN1c1ccccc1 (stereo not given) | – | > 100 µM | – | > 100 µM | – | > 100 µM | – | > 100 µM | – | 75.4 µM | – | 47.9 µM | – | 98.7 µM | – | 76.9 µM | – | 35.5 µM | – | > 100 µM
Cc1ncc([N+](=O)[O-])n1CCNS(=O)(=O)CCCn1ccnc1[N+](=O)[O-] | – | > 100 µM | – | > 100 µM | – | > 100 µM | – | > 100 µM | – | > 100 µM | – | > 100 µM | – | > 100 µM | – | > 100 µM | – | > 100 µM | – | > 100 µM
CCCCCCCCCNCCCCCCCCC | 1.93 µM | 3.38 µM | 1.49 µM | 3.09 µM | 2.15 µM | 5.95 µM | 1.83 µM | 3.29 µM | 1.54 µM | 3.08 µM | 1.81 µM | 3.25 µM | 1.9 µM | 3.4 µM | 2.04 µM | 3.83 µM | 1.57 µM | 3.38 µM | 1.76 µM | 3.48 µM
CCOC(=O)Cc1csc(/N=C2\NC(=O)/C(=C3\C(=O)N(C)c4ccccc43)S2)n1 | 48.4 µM | > 100 µM | 23.5 µM | 67.9 µM | 44.1 µM | > 100 µM | 23.3 µM | 83.8 µM | 24.8 µM | 93.3 µM | 73.3 µM | > 100 µM | 43.8 µM | > 100 µM | > 100 µM | > 100 µM | – | – | 52.1 µM | > 100 µM
